The values that follow come from patent US7012089B2, “[1,4]Diazocino[7,8,1-hi]indole derivatives as antipsychotic and antiobesity agents” (Wyeth, priority 2002, dated 2006).

Where a name gives a salt, the structure may show the parent alone. Read-outs that look alike come from different tables or passages of the source.

One may read the melting point as the temperature of the solid-liquid transition. The term EC50 denotes the concentration needed to bring the measured effect to its halfway point. Broadly, the Emax is the greatest response seen or fitted, relative to the assay's reference. The Ki is the equilibrium dissociation constant of an inhibitor or competing ligand from its target.

Data set [1] addresses T1, human 5-HT2C receptor (Homo sapiens, UniProt P28335).
T1 sequence (P28335 33-458): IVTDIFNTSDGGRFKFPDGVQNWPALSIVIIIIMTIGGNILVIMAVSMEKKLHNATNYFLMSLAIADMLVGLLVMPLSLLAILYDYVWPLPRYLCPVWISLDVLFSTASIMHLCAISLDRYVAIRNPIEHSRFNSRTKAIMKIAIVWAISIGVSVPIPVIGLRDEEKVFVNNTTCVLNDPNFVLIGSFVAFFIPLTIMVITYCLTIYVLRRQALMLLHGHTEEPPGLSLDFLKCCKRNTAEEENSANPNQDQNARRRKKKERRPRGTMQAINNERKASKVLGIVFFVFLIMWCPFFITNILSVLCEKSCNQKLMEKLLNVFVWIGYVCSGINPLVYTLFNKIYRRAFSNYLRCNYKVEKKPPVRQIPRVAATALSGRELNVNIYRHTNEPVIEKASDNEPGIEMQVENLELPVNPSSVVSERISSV
Put plainly: 5-HT2C receptor-stimulated calcium mobilization (FLIPR) in CHO cells. Format: cell-based.

Data set [2] has as its target T2, human 5-hydroxytryptamine-2C (h-5-HT2C) receptor (Homo sapiens, UniProt P28335).
T2 sequence (P28335 33-458): T1 sequence (P28335 33-458)
As to the kind of experiment: [125I]DOI binding to membranes of CHO cells expressing the h-5-HT2C receptor.

Setting [3] is: 5-HT2c Affinity KI (nM), displacement of [125I]DOI, CHO cell membranes.

`Clc1ccc2c3c1CCNCCN3C1CCCCCC21` (centres unmarked) (as salt: fumarate) [Example 22, 6-Chloro-2,3,4,5,9,10,11,12,13,13a-decahydro-1H,8bH-cyclohepta[b][1,4]diazocino[7,8,1-hi]indole] returned a melting point of 168 to 170 °C. Turning to `CCN1CCc2c(Cl)ccc3c2N(CC1)C1CCCCC31` (centres unmarked) (as salt: fumarate) [Example 23, 6-Chloro-3-ethyl-2,3,4,5,8b,9,10,11,12,12a-decahydro-1H-[1,4]diazocino[7,8,1-jk]carbazole], the melting point lay within 184 to 187 °C. Still for that read-out and setting: for `CN1CCc2ccc(F)c3c4c(n(c23)CC1)CCC4` (as salt: fumarate) [Example 24, 8-Fluoro-3-methyl-2,3,4,5,10,11-hexahydro-1H,9H-cyclopenta[b][1,4]diazocino[7,8,1-hi]indole] the value was 168 to 170 °C; for `CN1CCc2ccc(F)c3c4c(n(c23)CC1)CCCC4` (as salt: fumarate) [Example 25, 8-Fluoro-3-methyl-2,3,4,5,9,10,11,12-octahydro-1H-[1,4]diazocino[7,8,1-jk]carbazole], 206 to 208 °C; for `CN1CCc2ccc(F)c3c2N(CC1)C1CCCC31` (centres unmarked) (as salt: fumarate) [Example 26, 8-Fluoro-3-methyl-2,3,4,5,9,10,11,11a-octahydro-1H,8bH-cyclopenta[b][1,4]diazocino[7,8,1-hi]indole], 180 to 182 °C. The same measure, in the same setting: for `CN1CCc2ccc(F)c3c2N(CC1)C1CCCCC31` (centres unmarked) (as salt: fumarate) [Example 27, 8-Fluoro-3-methyl-2,3,4,5,8b,9,10,11,12,12a-decahydro-1H-[1,4]diazocino[7,8,1-jk]carbazole] the value was 168 to 170 °C; for `Fc1ccc2c3c1c1c(n3CCNCC2)CCC1` (as salt: fumarate) [Example 28, 8-Fluoro-2,3,4,5,10,11-hexahydro-1H,9H-cyclopenta[b][1,4]diazocino[7,8,1-hi]indole], 199 to 200 °C.

`Fc1ccc2c3c1c1c(n3CCNCC2)CCCC1` (as salt: fumarate) [Example 29, 8-Fluoro-2,3,4,5,9,10,11,12-octahydro-1H-[1,4]diazocino[7,8,1-jk]carbazole] came in with a melting point of 177 to 179 °C. As to `Fc1ccc2c3c1C1CCCC1N3CCNCC2` (centres unmarked) (as salt: fumarate) [Example 30, 8-Fluoro-2,3,4,5,9,10,11,11a-octahydro-1H,8bH-cyclopenta[b][1,4]diazocino[7,8,1-hi]indole], the melting point lay in the range of 169 to 170 °C. Compound `Fc1ccc2c3c1C1CCCCC1N3CCNCC2` (centres unmarked) (as salt: fumarate) [Example 31, 8-Fluoro-2,3,4,5,8b,9,10,11,12,12a-decahydro-1H[1,4]diazocino[7,8,1-jk]carbazole] displayed a melting point of 189 to 190 °C. In the case of `CN1CCc2ccc(Cl)c3c4c(n(c23)CC1)CCC4` (as salt: fumarate) [Example 34, 8-Chloro-3-methyl-2,3,4,5,10,11-hexahydro-1H,9H-cyclopenta[b][1,4]diazocino[7,8,1-hi]indole], the melting point fell in the range of 209 to 211 °C. As for `CN1CCc2ccc(Cl)c3c4c(n(c23)CC1)CCCC4` (as salt: fumarate) [Example 35, 8-Chloro-3-methyl-2,3,4,5,9,10,11,12-octahydro-1H-[1,4]diazocino[7,8,1-jk]carbazole], the melting point fell in the range of 212 to 214 °C. On the same count and under the same terms, for `CN1CCc2ccc(Cl)c3c2N(CC1)C1CCCC31` (centres unmarked) (as salt: fumarate) [Example 36, 8-Chloro-3-methyl-2,3,4,5,9,10,11,11a-octahydro-1H,8bH-cyclopenta[b][1,4]diazocino[7,8,1-hi]indole] the value was 179 to 181 °C; for `CN1CCc2ccc(Cl)c3c2N(CC1)C1CCCCC31` (centres unmarked) (as salt: fumarate) [Example 37, 8-Chloro-3-methyl-2,3,4,5,8b,9,10,11,12,12a-decahydro-1H-[1,4]diazocino[7,8,1-jk]carbazole], 178 to 180 °C. Still for that read-out and setting: for `Clc1ccc2c3c1c1c(n3CCNCC2)CCC1` (as salt: fumarate) [Example 38, 8-Chloro-2,3,4,5,10,11-hexahydro-1H,9H-cyclopenta[b][1,4]diazocino[7,8,1-hi]indole] the value was 226 to 228 °C.

As to `Clc1ccc2c3c1c1c(n3CCNCC2)CCCC1` (as salt: fumarate) [Example 39, 8-Chloro-2,3,4,5,9,10,11,12-octahydro-1H-[1,4]diazocino[7,8,1-jk]carbazole], the melting point is 199 to 201 °C. Regarding `Clc1ccc2c3c1C1CCCC1N3CCNCC2` (centres unmarked) (as salt: fumarate) [Example 40, 8-Chloro-2,3,4,5,9,10,11,11a-octahydro-1H,8bH-cyclopenta[b][1,4]diazocino[7,8,1-hi]indole], the melting point was in the range of 169 to 170 °C.

Consider `Clc1ccc2c3c1C1CCCCC1N3CCNCC2` (centres unmarked) (as salt: fumarate) [Example 41, 8-Chloro-2,3,4,5,8b,9,10,11,12,12a-decahydro-1H-[1,4]diazocino[7,8,1-jk]carbazole], for which the melting point lay within 199 to 200 °C. In turn, `CN1CCc2cccc3c2N(CC1)C1CCSCC31` (centres unmarked) (as salt: fumarate) [Example 44, 3-Methyl-2,3,4,5,9,10,11,12-octahydro-1H,9H-[1,4]diazocino[7,8,1-hi]thiopyrano[4,3-b]indole] gave a melting point of 187 to 189 °C. Consider `c1cc2c3c(c1)C1CCCC1N3CCNCC2` (centres unmarked) (as salt: hydrochloride) [Example 4, 2,3,4,5,9,10,11,11a-Octahydro-1H,8bH-cyclopenta[b][1,4]diazocino[7,8,1-hi]indole], for which the melting point fell in the range of 137 to 140 °C. `Fc1ccc2c3c1[C@H]1CCCC[C@H]1N3CCNCC2` (single isomer, unassigned) (as salt: fumarate) [Example 32, (+)-(8bR*,12aR*)-8-Fluoro-2,3,4,5,8b,9,10,11,12,12a-decahydro-1H-[1,4]diazocino[7,8,1-jk]carbazole]: the melting point is over 130 °C. The same measure, in the same setting: for `Fc1ccc2c3c1[C@H]1CCCC[C@H]1N3CCNCC2` (single isomer, unassigned) (as salt: fumarate) [Example 33, (−)-(8bR*,12aR*)-8-Fluoro-2,3,4,5,8b,9,10,11,12,12a-decahydro-1H-[1,4]diazocino[7,8,1-jk]carbazole] the value was 94 to 96 °C; for `Clc1ccc2c3c1[C@H]1CCCC[C@H]1N3CCNCC2` (single isomer, unassigned) (as salt: fumarate) [Example 42, (+)-(8bR*,12aR*)-8-Chloro-2,3,4,5,8b,9,10,11,12,12a-decahydro-1H-[1,4]diazocino[7,8,1-jk]carbazole], 170 to 173 °C. In turn, `Clc1ccc2c3c1[C@H]1CCCC[C@H]1N3CCNCC2` (single isomer, unassigned) (as salt: fumarate) [Example 43, (−)-(8bR*,12aR*)-8-Chloro-2,3,4,5,8b,9,10,11,12,12a-decahydro-1H-[1,4]diazocino[7,8,1-jk]carbazole] displayed a melting point of 168 to 171 °C. On the same count and under the same terms, for `c1cc2c3c(c1)[C@H]1CCCC[C@H]1N3CCNCC2` (single isomer, unassigned) (as salt: fumarate) [Example 47, (+)-(8bR*,12aR*)-2,3,4,5,8b,9,10,11,12,12a-Decahydro-1H-[1,4]diazocino[7,8,1-jk]carbazole] the value was 139 to 140 °C.

`c1cc2c3c(c1)[C@H]1CCC[C@H]1N3CCNCC2` (single isomer, unassigned) (as salt: hydrochloride) [Example 45, (+)-(8bR*,11aR*)-2,3,4,5,9,10,11,11a-Octahydro-1H,8bH-cyclopenta[b][1,4]diazocino[7,8,1-hi]indole] registered a melting point of over 130 °C. Regarding `CN1CCc2cccc3c4c(n(c23)CC1)CCC4` [Example 1, 3-Methyl-2,3,4,5,10,11-hexahydro-1H,9H-cyclopenta[b][1,4]diazocino[7,8,1-hi]indole], the melting point was in the range of 128 to 130 °C. Moreover, in data set [1], the concentration for a half-maximal effect (EC50) came to 0.048 µM. In addition, the maximal response (Emax) in data set [1] (CHO, read-out: 5-HT2C Function Emax (%)) is 45%. In addition, in data set [2] (setting [3]), the Ki was determined as 35 nM.

For `CN1CCc2cccc3c4c(n(c23)CC1)CCSC4` [Example 11, 3-Methyl-2,3,4,5,11,12-hexahydro-1H,9H-[1,4]diazocino[7,8,1-hi]thiopyrano[4,3-b]indole], the melting point fell in the range of 123 to 125 °C. The compound further yielded an inhibition constant (Ki) in data set [2] (setting [3]) of 38 nM. For the compound `CN1CCc2c(Cl)ccc3c4c(n(c23)CC1)CCC4` [Example 12, 6-Chloro-3-methyl-2,3,4,5,10,11-hexahydro-1H,9H-cyclopenta[b][1,4]diazocino[7,8,1-hi]indole], the melting point is 138 to 140 °C. In data set [2] (read-out: 5-HT2c Affinity KI), the inhibitory constant (Ki) stood at 250 nM. In the case of `CN1CCc2c(Cl)ccc3c4c(n(c23)CC1)CCCC4` [Example 13, 6-Chloro-3-methyl-2,3,4,5,9,10,11,12-octahydro-1H-[1,4]diazocino[7,8,1-jk]carbazole], the melting point is 128 to 130 °C. In addition, the Ki in data set [2] (setting [3]) was found to be 34 nM. `CN1CCc2c(Cl)ccc3c4c(n(c23)CC1)CCCCC4` [Example 14, 6-Chloro-3-methyl-2,3,4,5,10,11,12,13-octahydro-1H,9H-cyclohepta[b][1,4]diazocino[7,8,1-hi]indole] showed a melting point of 132 to 134 °C. In addition, in data set [2] (read-out: 5-HT2c Affinity KI), the inhibition constant (Ki) was 250 nM.
